Measurements from PMC8929578, “In vitro and in silico evaluation of Ononis isoflavonoids as molecules targeting the central nervous system” (PLoS ONE, 2022).
“And” between values parts separate entries of the source, which are not always exact repeats. Identical values can stand only once. Like-named read-outs stand apart in the source and are kept apart here. One block for each compound: values may come before it.

Tests used:
MAO-B vs MAO-A = assay: Selectivity index of ChEMBl reference structures (MAO-A and MAO-B IC50); format: biochemical, human; conditions: selectivity index calculated from ChEMBl IC50 values of MAO-A and MAO-B
[1] = set-up: method as in literature (reference not given); conditions: ref literature (reference not given); cited from earlier work
[2] = PAMPA-BBB parallel artificial membrane permeability assay; conditions: for Papp at 4 h, 100 µM: PAMPA; for Experimental log Pe value / Membrane retention: PAMPA-BBB, pH 7.4, 37°C, 4 hours, n=9, ± SD; for Experimental log Pe value: Pe in cm/s
[3] = Octanol/water partitioning, shake-flask method (log P, log D^pH); conditions: n-octanol/Britton-Robinson buffer
MAO-B = conditions: cited from earlier work; for MAO-B selectivity index: MAO-B over MAO-A; for IC50: in vitro
[4] = PAMPA, pH 7.4

SMILES: O=C1/C(=C/c2cccc(F)c2)Cc2cc(O)ccc21 [CHEMBL3965044]
- Selectivity (MAO-B vs MAO-A): 5.452

SMILES: N#Cc1cccc(/C=C2\Cc3cc(O)ccc3C2=O)c1 [CHEMBL3971638]
- Selectivity (MAO-B vs MAO-A): 3.415

SMILES: O=C1/C(=C/c2cccc(Br)c2)Cc2cc(O)ccc21 [CHEMBL3979091]
- Selectivity (MAO-B vs MAO-A): 10.0769

SMILES: Cc1ccc2occ(/C=N/c3cc(Cl)ccc3O)c(=O)c2c1 [CHEMBL4073506]
- Selectivity (MAO-B vs MAO-A): 3.391

SMILES: O=c1c(/C=N/c2cc(F)ccc2O)coc2ccccc12 [CHEMBL4082043]
- Selectivity (MAO-B vs MAO-A): 2.612

SMILES: Cc1ccc(O)c(/N=C/c2coc3ccc(C)cc3c2=O)c1 [CHEMBL4082612]
- Selectivity (MAO-B vs MAO-A): 6.275

SMILES: O=c1c(/C=N/c2ccc(Cl)cc2O)coc2ccccc12 [CHEMBL4086270]
- Selectivity (MAO-B vs MAO-A): 0.7978

SMILES: Cc1ccc2occ(/C=N/c3cc(F)ccc3O)c(=O)c2c1 [CHEMBL4090445]
- Selectivity (MAO-B vs MAO-A): 1.637

SMILES: Cc1ccc2occ(/C=N/c3ccc(Cl)cc3O)c(=O)c2c1 [CHEMBL4099570]
- Selectivity (MAO-B vs MAO-A): 2.863

SMILES: Cc1ccc(O)c(/N=C/c2coc3ccccc3c2=O)c1 [CHEMBL4100473]
- Selectivity (MAO-B vs MAO-A): 2.956

- Papp at 4 h, 100 µM [2]: 3.24 ×10⁻⁶ cm/s
SMILES: Cn1c(=O)c2c(ncn2C)n(C)c1=O [Caffeine]
- log BB literature value [1]: 0.01

- Papp at 4 h, 100 µM ([2]; pH 7.4): 2.5 ×10⁻⁶ cm/s
- Experimental log Pe value [2]: -5.60 and -5.60 ± 0.07
- Membrane retention [2]: 16.49% and 16.49 ± 1.38%
- BBB category from Pe ([2]; categorization of Di et al.): uncertain
- BBB category from log Pe ([2]; cut-off of Könczöl et al.): well-permeating
- BBB category from log Pe ([2]; cut-off of Mensch et al.): BBB-
- logD at 1 h ([3]; pH 5): 2.48 ± 0.02
- logP at 1 h ([3]; pH 5): 2.48
- logD at 1 h ([3]; pH 7.4): 2.21 ± 0.04
SMILES: COc1cc(-c2coc3cc(O)ccc3c2=O)ccc1O [Calycosin D]

SMILES: COc1ccc(-c2coc3cc(O)ccc3c2=O)cc1O [Calycosin]
- MAO-B selectivity index (MAO-B): 293.8
- IC50 (MAO-B): 240 nM

- Papp at 4 h, 100 µM ([2]; pH 7.4): 10 ×10⁻⁶ cm/s
- Experimental log Pe value [2]: -5.00 ± 0.11
- Membrane retention [2]: 27.25% and 27.25 ± 6.43%
- logD at 1 h ([3]; pH 5): 2.83 ± 0.05
- logP at 1 h ([3]; pH 5): 2.83
- logD at 1 h ([3]; pH 7.4): 2.73 ± 0.07
SMILES: COc1ccc(-c2coc3cc(O)ccc3c2=O)cc1 [Formononetin]

- Experimental log Pe value ([4]; 4 h, 100 µM): -4.48
- Experimental log Pe value [4]: -4.48 ± 0.08
- Measured log D^7.4 ± SE ([3]; pH 7.4, 25°C): 2.49 ± 0.02
- Experimental log P ([3]; unionized form (pH 5 for isoflavones and isoflavanones)): 2.49
SMILES: Oc1ccc2c(c1)OC[C@H]1c3cc4c(cc3O[C@@H]21)OCO4 [Maackiain]
- MAO-B selectivity index (MAO-B): 126.2
- Type of MAO-B inhibition (MAO-B): reversible
- IC50 (MAO-B): 680 nM

SMILES: COc1ccc2c(c1)O[C@H]1c3ccc(O)cc3OC[C@@H]21 [Medicarpin]
- Experimental log P (pH 5): 3.03
- Measured log D^7.4 ± SE (pH 7.4): 3.03 ± 0.02
- Experimental log Pe value ([4]; 4 h, 100 µM): -4.45
- Experimental log Pe value [4]: -4.45 ± 0.04
- IC50 (MAO-B): 300 nM

- Papp at 4 h, 100 µM ([2]; pH 7.4): 18.6 ×10⁻⁶ cm/s
- Experimental log Pe value [2]: -4.73 ± 0.04
- Membrane retention [2]: 32.51% and 31.51 ± 4.04%
- logD at 1 h ([3]; pH 5): 3.03 ± 0.02
- logP at 1 h ([3]; pH 5): 3.03
- logD at 1 h ([3]; pH 7.4): 2.49 ± 0.04
SMILES: COc1cc2c(cc1C1COc3cc(O)ccc3C1=O)OCO2 (centres unmarked) [Onogenin]

- Papp at 4 h, 100 µM [2]: 15.5 ×10⁻⁶ cm/s
SMILES: C=C[C@H]1C[N@@]2CC[C@H]1C[C@H]2[C@H](O)c1ccnc2ccc(OC)cc12 [Quinine]
- log BB literature value [1]: 0.60

SMILES: C[C@@H]1O[C@@H](OC[C@H]2O[C@@H](Oc3c(-c4ccc(O)c(O)c4)oc4cc(O)cc(O)c4c3=O)[C@H](O)[C@@H](O)[C@@H]2O)[C@H](O)[C@H](O)[C@H]1O [Rutin]
- log BB literature value [1]: -1.22
- Papp at 4 h, 100 µM [2]: 0.00776 ×10⁻⁶ cm/s

- Papp at 4 h, 100 µM [2]: 0.00851 ×10⁻⁶ cm/s
SMILES: O=C(O)c1ccccc1O [Salicylic acid]
- log BB literature value [1]: -1.10

- Papp at 4 h, 100 µM ([2]; pH 7.4): 17.4 ×10⁻⁶ cm/s
- Experimental log Pe value [2]: -4.76 ± 0.07
- Membrane retention [2]: 33.66% and 33.66 ± 4.13%
- logD at 1 h ([3]; pH 5): 3.04 ± 0.01
- logP at 1 h ([3]; pH 5): 3.04
- logD at 1 h ([3]; pH 7.4): 2.75 ± 0.03
SMILES: COc1ccc(C2COc3cc(O)ccc3C2=O)c(OC)c1 (centres unmarked) [Sativanone]
